These results are taken from patent US8765907B2, “Production and use of antitumoral antibiotic and insecticidal cyclodepsipeptides” (Geomar Helmholtz-Zentrum fur Ozeanforschung Kiel, priority 2009, dated 2014).

The subject of assay [1] is GXF251L (gastric tumour cell line). Description: Anti-proliferative effect (propidium iodide fluorescence assay), GXF251L. The format is cell-based, human. As to the method:
(§1) Xenobovide A, B and C inhibited the proliferation of all six tested human tumour cell lines: GXF251L (gastric tumour cell line), LXF529L (lung tumour cell line), MAXF401NL (breast cancer cell line), MEXF462NL (melanoma cell line), PAXF1657L (pancreas tumour cell line) and RXF486L (kidney tumour cell line).
(§2) The anti-proliferative effect was determined according to Dengler et al. (1995, Development of a propidium iodide fluorescence assay for proliferation and cytoxicity assay. Anti-Cancer Drugs 6:522-532).

The test system of assay [2] is MAXF401NL (breast cancer cell line). Kind of assay: Anti-proliferative effect (propidium iodide fluorescence assay), MAXF401NL. Format: cell-based, human. How it is done:
as §1, §2

In assay [3] the test system is MEXF462NL (melanoma cell line). Kind of assay: Anti-proliferative effect (propidium iodide fluorescence assay), MEXF462NL. Format: cell-based, human. As to the method:
as §1, §2

Assay [4] relates to RXF486L (kidney tumour cell line). Kind of assay: Anti-proliferative effect (propidium iodide fluorescence assay), RXF486L. The format is cell-based, human. As to the method:
as §1, §2

The test system of assay [5] is LXF529L (lung tumour cell line). Description: Anti-proliferative effect (propidium iodide fluorescence assay), LXF529L. The format is cell-based, human. As to the method:
as §1, §2

Assay [6] addresses glycogen synthase kinase 3beta (Homo sapiens, UniProt P49841). Kind of assay: Inhibition of glycogen synthase kinase 3beta (Kinase-Glo luminescent assay). The format is biochemical. The text has this:
Xenobovide A and B, in a concentration of 16.3 μMol and 15.6 μMol, respectively, inhibited the glycogen synthase kinase 3beta by 21% and 43%, respectively. The performance was according to Baki et al. (2007, A high throughput luminescent assay for glycogen synthase kinase-3beta inhibitors. Assay and Drug Development Technologies. 5:75-83) using the kinase-Glo Luminescent Kinase Assay Kit of the company Promega.

The test system of assay [7] is PAXF1657L (pancreas tumour cell line). Description: Anti-proliferative effect (propidium iodide fluorescence assay), PAXF1657L. Format: cell-based, human. How it is done: as §1, §2
The next assay has as its system larvae of the wax moth. Description: Insecticidal effect, oral toxicity in feed. The format is in vivo. Conditions: added to feed, 1 mg substance/mL solution, five larvae per box, 35° C., six days, four repeated experiments. As to the method: The insecticidal effect was tested against the larvae of the wax moth, a pathogen in beekeeping. […] To test the oral toxicity, 1 mg substance/mL was dissolved in a 50% aqueous ethanol solution. Five larvae each were transferred into a plastic box (2 cm in diameter) and fed with 1 g food mixture (0.8 mL substance solution, 0.2 mL glycerine (86%) and 1 g wheat bran). The control group was fed with 1 g food mixture without addition of substance (0.4 mL aq. dest., 0.4 mL ethanol, 0.2 mL glycerine (86%) and 1 g wheat bran). The incubation of the larvae was at 35° C. for six days. Subsequently, the dead larvae were counted.

The target of another assay is acetylcholine esterase. The following applies: read-out: IC50-value, acetylcholine esterase. As to the method:
Testing was performed according to Birman (1985, Determination of acetylcholinesterase activity by a new chemiluminescence assay with natural substrate. Biochemical Journal. 225:825-828).

Assay [8] deals with T1, Protein Tyrosine Phosphatase 1B (PTP1B) (Homo sapiens, UniProt P18031).
T1 sequence (P18031 1-435): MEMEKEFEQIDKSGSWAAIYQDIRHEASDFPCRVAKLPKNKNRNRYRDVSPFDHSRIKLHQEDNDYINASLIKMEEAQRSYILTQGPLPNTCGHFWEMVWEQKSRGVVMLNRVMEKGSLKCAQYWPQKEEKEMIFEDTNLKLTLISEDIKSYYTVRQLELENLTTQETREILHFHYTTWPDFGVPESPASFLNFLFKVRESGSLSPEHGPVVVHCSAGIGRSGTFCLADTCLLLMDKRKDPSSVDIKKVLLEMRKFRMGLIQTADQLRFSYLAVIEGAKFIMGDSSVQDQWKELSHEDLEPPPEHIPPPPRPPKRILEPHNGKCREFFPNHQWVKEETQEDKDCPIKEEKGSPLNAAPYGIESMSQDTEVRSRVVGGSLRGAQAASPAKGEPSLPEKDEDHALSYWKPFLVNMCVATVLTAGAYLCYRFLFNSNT
Description: Inhibition of protein tyrosine phosphatase 1B. The format is biochemical. The following applies: 26.1 μMol. How it is done: Xenobovide A in a concentration of 26.1 μMol inhibits the protein tyrosine phosphotase 1B (PTB1B) by 59%. This enzyme test was carried out according to Hohmann et al. (2009, Caboxamycin, a new antibiotic of the benzoxazole family produced by the deep-sea strain Streptomyces sp. NTK 937. The Journal of Antibiotics. 62:99-104).

Assay [9] has as its target phosphodiesterase (PDE-4B2) (Homo sapiens, UniProt Q07343). Description: Inhibition of phosphodiesterase PDE-4B2. The format is biochemical. The following applies: 163 μg/mL. As to the method:
Xenobovide A in a concentration of 163 μg/mL inhibits the phosphodiesterase (PDE-4B2) by 46%. This enzyme test was carried out according to Hohmann et al. (2009, Caboxamycin, a new antibiotic of the benzoxazole family produced by the deep-sea strain Streptomyces sp. NTK 937. The Journal of Antibiotics. 62:99-104).

Molecules are shown by their SMILES.

Sequence of glycogen synthase kinase 3beta (P49841 whole entry, species assumed): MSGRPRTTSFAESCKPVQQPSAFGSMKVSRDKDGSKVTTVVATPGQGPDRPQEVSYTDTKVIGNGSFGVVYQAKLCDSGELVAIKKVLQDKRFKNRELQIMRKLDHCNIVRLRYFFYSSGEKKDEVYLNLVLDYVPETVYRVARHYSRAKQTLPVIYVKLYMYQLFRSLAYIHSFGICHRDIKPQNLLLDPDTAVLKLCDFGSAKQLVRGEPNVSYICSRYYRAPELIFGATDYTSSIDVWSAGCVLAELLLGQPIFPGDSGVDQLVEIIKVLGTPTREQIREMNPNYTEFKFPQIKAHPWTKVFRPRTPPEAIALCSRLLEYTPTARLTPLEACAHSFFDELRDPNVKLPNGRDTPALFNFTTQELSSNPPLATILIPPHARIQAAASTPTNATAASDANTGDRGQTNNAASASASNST
Sequence of phosphodiesterase (PDE-4B2) (Q07343 1-564 isoform Q07343-2, species assumed): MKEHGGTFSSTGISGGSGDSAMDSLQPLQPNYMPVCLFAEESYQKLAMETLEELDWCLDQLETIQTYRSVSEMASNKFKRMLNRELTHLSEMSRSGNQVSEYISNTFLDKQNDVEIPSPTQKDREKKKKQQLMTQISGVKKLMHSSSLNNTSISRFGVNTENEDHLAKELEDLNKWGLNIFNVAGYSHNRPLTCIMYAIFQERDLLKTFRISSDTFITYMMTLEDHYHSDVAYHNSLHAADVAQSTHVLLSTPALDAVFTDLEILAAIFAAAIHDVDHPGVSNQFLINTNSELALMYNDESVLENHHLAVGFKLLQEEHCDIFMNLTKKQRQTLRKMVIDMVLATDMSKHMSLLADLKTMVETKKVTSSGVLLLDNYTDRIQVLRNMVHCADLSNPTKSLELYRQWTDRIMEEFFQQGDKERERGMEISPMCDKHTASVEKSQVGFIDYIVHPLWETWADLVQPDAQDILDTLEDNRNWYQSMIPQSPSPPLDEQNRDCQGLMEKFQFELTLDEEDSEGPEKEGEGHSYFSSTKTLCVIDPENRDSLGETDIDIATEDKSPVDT

Regarding `CCCCC(C)CC(=O)N[C@@H]1C(=O)N[C@@H](C)C(=O)NC(CC(C)C)C(=O)NC(CC(C)C)C(=O)NC(CC(C)C)C(=O)NC(CC(C)C)C(=O)N[C@@H](C)C(=O)O[C@@H]1C` (single isomer, unassigned) [Xenobovide B], the IC50 was determined as 2.5 µM in assay [1]; 3.2 µM in [2]; 5.3 µM in [3]; 14.5 µM in assay [4]; 9.7 µM in assay [5]; 2.9 µM in assay [7]. Also, the “inhibition of glycogen synthase kinase 3beta” value in [6] (15.6 μMol) was 43%. Besides, in the assay on larvae of the wax moth, the “insecticidal effect (dead larvae)” value is “death of all larvae”.
On to `CCCCC(C)CC(=O)N[C@@H]1C(=O)N[C@@H](C)C(=O)NC(CC(C)C)C(=O)NC(CC(C)C)C(=O)NC(CC(C)C)C(=O)NC(CC(C)C)C(=O)N[C@@H](C)C(=O)O[C@@H]1C` (single isomer, unassigned) [Xenobovide C], for which the IC50 stood at 3 µM in [1]; 8.5 µM in assay [2]; 9.4 µM in assay [3]; 7.6 µM in [4]; 7.8 µM in [5]; 10.3 µM in assay [7]. The “insecticidal effect (dead larvae)” value with larvae of the wax moth was “death of all larvae”.
With `CCCCC(C)CC(=O)N[C@@H]1C(=O)N[C@@H](C)C(=O)NC(CC(C)C)C(=O)NC(CC(C)C)C(=O)NC(CC(C)C)C(=O)NC(CC(C)C)C(=O)N[C@@H](C)C(=O)O[C@@H]1C` (single isomer, unassigned) [Xenobovide A], the IC50 on acetylcholine esterase is 53.6 µM; in [1], 1.6 µM; in assay [2], 2.1 µM; in assay [3] it was 2.7 µM; in assay [4], 12 µM; in assay [5], 8.5 µM. In assay [7], this molecule showed an IC50 of 3.5 µM. The “inhibition of protein tyrosine phosphatase 1B” value in assay [8] is given as 59%. Besides, in assay [9], the inhibition at 163 µg/mL was 46%. In [6] (16.3 μMol), the “inhibition of glycogen synthase kinase 3beta” value turned out to be 21%. The “insecticidal effect (dead larvae)” value in the assay on larvae of the wax moth is recorded as “death of all larvae”.
